# Reference: patent publication US11117892B2, “Pyrrolo-pyridine derivative compound, method for preparing same, and pharmaceutical composition containing same as active ingredient for prevention or treatment of protein kinase-related diseases” (DAEGU-GYEONGBUK MEDICAL INNOVATION FOUNDATION, priority 2017, dated 2021)
# How the values were obtained:
# Assay in all cases: scanMAX Kinase assay panel
# Assay type in all cases: binding
# Conditions in all cases: read-out: % control
# [1] = molecular target: ABL1(F317L)-nonphosphorylated (Homo sapiens (Human), UniProt P00519, F317L)
# Description: (§1) DiscoverX Co. was asked to measure the enzyme (kinase) selectivity, and the experiment was performed using scanMAX™ Kinase assay panel.
# (§2) (Example Compound−Positive Control)/(Negative Control−Positive Control)×100 [Equation 1]
# (§3) Herein, the positive control indicates the compound showing the % control of 0%, and the negative control indicates DMSO showing the % control of 100%.
# [2] = molecular target: ABL1(F317L)-phosphorylated (Homo sapiens (Human), UniProt P00519, F317L)
# Description: as §1, §2, §3
# ACVRL1 = ACVRL1 (Homo sapiens (Human), UniProt P37023)
# Description: as §1, §2, §3
# ADCK3 = ADCK3 (Homo sapiens (Human), UniProt Q8NI60)
# Description: as §1, §2, §3
# AKT1 = AKT1 (Homo sapiens (Human), UniProt P31749)
# Description: as §1, §2, §3
# ARK5 = ARK5 (Homo sapiens (Human), UniProt O60285)
# Description: as §1, §2, §3
# BMPR1B = BMPR1B (Homo sapiens (Human), UniProt O00238)
# Description: as §1, §2, §3
# CAMKK1 = CAMKK1 (Homo sapiens (Human), UniProt Q8N5S9)
# Description: as §1, §2, §3
# CDK9 = CDK9 (Homo sapiens (Human), UniProt P50750)
# Description: as §1, §2, §3
# CHEK1 = CHEK1 (Homo sapiens (Human), UniProt O14757)
# Description: as §1, §2, §3
# CSNK1A1L = CSNK1A1L (Homo sapiens (Human), UniProt Q8N752)
# Description: as §1, §2, §3
# EGFR(E746-A750del) = EGFR(E746-A750del) (Homo sapiens (Human), UniProt P00533, DEL746-750)
# Description: as §1, §2, §3
# EPHA3 = EPHA3 (Homo sapiens (Human), UniProt P29320)
# Description: as §1, §2, §3
# EPHA6 = EPHA6 (Homo sapiens (Human), UniProt Q9UF33)
# Description: as §1, §2, §3
# ERBB2 = ERBB2 (Homo sapiens (Human), UniProt P04626)
# Description: as §1, §2, §3
# FGFR3 = FGFR3 (Homo sapiens (Human), UniProt P22607)
# Description: as §1, §2, §3
# FGR = FGR (Homo sapiens (Human), UniProt P09769)
# Description: as §1, §2, §3
# FRK = FRK (Homo sapiens (Human), UniProt P42685)
# Description: as §1, §2, §3
# HCK = HCK (Homo sapiens (Human), UniProt P08631)
# Description: as §1, §2, §3
# IKK-epsilon = IKK-epsilon (Homo sapiens (Human), UniProt Q14164)
# Description: as §1, §2, §3
# IRAK3 = IRAK3 (Homo sapiens (Human), UniProt Q9Y616)
# Description: as §1, §2, §3
# KIT(V559D) = KIT(V559D) (Homo sapiens (Human), UniProt P10721, V559D)
# Description: as §1, §2, §3
# LCK = LCK (Homo sapiens (Human), UniProt P06239)
# Description: as §1, §2, §3
# MEK2 = MEK2 (Homo sapiens (Human), UniProt P36507)
# Description: as §1, §2, §3
# MEK5 = MEK5 (Homo sapiens (Human), UniProt Q13163)
# Description: as §1, §2, §3
# OSR1 = OSR1 (Homo sapiens (Human), UniProt O95747)
# Description: as §1, §2, §3
# PAK4 = PAK4 (Homo sapiens (Human), UniProt O96013)
# Description: as §1, §2, §3
# PCTK3 = PCTK3 (Homo sapiens (Human), UniProt Q07002)
# Description: as §1, §2, §3
# PIP5K2B = PIP5K2B (Homo sapiens (Human), UniProt P78356)
# Description: as §1, §2, §3
# PKN1 = PKN1 (Homo sapiens (Human), UniProt Q16512)
# Description: as §1, §2, §3
# PLK3 = PLK3 (Homo sapiens (Human), UniProt Q9H4B4)
# Description: as §1, §2, §3
# PRKR = PRKR (Homo sapiens (Human), UniProt P19525)
# Description: as §1, §2, §3
# ROS1 = ROS1 (Homo sapiens (Human), UniProt P08922)
# Description: as §1, §2, §3
# [3] = molecular target: RSK4(Kin.Dom.2-C-terminal) (Homo sapiens (Human), UniProt Q9UK32)
# Description: as §1, §2, §3
# SGK3 = SGK3 (Homo sapiens (Human), UniProt Q96BR1)
# Description: as §1, §2, §3
# SYK = SYK (Homo sapiens (Human), UniProt P43405)
# Description: as §1, §2, §3
# TGFBR1 = TGFBR1 (Homo sapiens (Human), UniProt P36897)
# Description: as §1, §2, §3
# ULK3 = ULK3 (Homo sapiens (Human), UniProt Q6PHR2)
# Description: as §1, §2, §3
# YANK2 = YANK2 (Homo sapiens (Human), UniProt Q9NY57)
# Description: as §1, §2, §3
# EPHA6, sequence (Q9UF33 23-1036): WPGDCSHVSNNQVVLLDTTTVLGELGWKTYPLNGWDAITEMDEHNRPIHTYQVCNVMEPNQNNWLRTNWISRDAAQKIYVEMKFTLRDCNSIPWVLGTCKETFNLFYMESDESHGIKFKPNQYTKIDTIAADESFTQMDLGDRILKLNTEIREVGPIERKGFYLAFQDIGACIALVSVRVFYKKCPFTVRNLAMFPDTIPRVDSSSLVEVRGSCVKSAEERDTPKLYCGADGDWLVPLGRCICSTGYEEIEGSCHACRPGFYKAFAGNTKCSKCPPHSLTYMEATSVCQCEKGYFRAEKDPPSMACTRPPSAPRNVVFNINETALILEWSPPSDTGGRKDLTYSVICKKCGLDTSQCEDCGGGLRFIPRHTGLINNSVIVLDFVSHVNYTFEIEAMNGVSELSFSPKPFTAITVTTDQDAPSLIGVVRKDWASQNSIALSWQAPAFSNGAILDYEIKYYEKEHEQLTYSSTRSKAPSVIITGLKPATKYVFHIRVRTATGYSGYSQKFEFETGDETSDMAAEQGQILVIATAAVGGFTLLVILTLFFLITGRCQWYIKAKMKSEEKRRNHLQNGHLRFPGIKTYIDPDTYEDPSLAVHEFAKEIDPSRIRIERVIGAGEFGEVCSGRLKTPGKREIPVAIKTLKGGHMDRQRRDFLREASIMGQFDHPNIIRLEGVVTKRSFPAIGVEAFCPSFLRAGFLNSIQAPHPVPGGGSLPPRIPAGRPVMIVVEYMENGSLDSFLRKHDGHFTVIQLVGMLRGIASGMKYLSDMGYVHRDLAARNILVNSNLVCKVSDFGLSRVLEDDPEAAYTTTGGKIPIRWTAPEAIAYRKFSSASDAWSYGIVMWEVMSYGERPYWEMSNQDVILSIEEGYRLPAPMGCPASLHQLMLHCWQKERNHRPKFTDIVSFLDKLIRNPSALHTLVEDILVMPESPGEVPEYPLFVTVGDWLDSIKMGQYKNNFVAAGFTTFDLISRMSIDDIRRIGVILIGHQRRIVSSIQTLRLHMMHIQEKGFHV
# OSR1, sequence (O95747 whole entry): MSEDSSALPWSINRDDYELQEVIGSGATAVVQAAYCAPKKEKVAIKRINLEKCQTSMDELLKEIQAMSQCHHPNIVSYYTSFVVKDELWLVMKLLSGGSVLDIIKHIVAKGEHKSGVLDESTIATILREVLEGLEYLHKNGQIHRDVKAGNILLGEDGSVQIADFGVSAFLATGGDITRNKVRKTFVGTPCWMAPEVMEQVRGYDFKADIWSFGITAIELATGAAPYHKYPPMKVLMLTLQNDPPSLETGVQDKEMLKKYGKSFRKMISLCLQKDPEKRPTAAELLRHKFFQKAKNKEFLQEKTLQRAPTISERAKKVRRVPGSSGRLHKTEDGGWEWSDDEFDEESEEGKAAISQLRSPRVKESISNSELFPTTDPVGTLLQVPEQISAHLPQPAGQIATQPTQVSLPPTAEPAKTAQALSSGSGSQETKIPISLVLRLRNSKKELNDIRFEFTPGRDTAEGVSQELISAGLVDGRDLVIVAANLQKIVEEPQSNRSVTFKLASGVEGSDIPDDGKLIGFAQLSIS
# PIP5K2B, sequence (P78356 whole entry): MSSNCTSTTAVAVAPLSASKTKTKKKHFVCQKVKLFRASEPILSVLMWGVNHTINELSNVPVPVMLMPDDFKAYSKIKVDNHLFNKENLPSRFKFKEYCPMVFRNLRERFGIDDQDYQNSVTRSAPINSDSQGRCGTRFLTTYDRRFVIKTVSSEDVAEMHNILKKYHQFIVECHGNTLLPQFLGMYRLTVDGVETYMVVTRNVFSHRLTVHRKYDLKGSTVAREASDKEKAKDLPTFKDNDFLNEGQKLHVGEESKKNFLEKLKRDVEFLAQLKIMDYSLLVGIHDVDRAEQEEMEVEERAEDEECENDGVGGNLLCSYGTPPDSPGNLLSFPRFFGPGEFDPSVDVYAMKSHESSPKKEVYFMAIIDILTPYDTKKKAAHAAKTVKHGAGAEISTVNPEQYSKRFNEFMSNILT
# EPHA3, sequence (P29320 21-983): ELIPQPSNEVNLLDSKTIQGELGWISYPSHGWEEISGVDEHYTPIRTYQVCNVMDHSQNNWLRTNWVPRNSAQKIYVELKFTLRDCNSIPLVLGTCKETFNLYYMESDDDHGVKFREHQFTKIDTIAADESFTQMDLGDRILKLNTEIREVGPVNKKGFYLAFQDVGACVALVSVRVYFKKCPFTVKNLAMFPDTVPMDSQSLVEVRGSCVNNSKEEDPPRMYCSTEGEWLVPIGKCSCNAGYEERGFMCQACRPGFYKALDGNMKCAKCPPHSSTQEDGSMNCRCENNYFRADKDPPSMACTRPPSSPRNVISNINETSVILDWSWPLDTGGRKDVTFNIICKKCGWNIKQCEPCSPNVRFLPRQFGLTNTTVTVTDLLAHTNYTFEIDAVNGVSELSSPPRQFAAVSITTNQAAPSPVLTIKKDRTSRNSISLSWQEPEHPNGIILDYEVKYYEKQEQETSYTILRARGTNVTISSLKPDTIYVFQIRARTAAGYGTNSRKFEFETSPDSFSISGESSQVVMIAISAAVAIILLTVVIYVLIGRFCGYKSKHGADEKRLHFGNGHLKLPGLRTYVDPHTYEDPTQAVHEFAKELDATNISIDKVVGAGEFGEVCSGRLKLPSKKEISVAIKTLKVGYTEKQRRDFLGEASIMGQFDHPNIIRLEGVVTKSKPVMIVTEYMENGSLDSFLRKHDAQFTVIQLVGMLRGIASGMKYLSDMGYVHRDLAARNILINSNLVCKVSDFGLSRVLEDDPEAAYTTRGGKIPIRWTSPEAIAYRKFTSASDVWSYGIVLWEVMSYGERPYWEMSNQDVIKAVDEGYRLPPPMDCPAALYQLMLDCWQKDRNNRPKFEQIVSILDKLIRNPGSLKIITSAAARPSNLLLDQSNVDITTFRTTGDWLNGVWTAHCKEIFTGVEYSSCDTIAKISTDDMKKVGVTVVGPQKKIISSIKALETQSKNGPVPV
# MEK5, sequence (Q13163 whole entry): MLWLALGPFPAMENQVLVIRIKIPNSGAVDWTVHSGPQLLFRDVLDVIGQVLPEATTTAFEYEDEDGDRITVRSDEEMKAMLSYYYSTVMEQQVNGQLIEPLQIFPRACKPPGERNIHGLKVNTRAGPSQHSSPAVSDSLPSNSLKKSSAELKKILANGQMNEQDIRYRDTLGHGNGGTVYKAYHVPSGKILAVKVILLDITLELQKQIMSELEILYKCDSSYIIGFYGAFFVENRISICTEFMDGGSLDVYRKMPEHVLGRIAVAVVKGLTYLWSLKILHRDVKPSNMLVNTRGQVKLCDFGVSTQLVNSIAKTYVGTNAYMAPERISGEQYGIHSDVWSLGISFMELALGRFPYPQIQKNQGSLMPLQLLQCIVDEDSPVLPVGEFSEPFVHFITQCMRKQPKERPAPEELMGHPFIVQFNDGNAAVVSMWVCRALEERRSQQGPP
# TGFBR1, sequence (P36897 34-503): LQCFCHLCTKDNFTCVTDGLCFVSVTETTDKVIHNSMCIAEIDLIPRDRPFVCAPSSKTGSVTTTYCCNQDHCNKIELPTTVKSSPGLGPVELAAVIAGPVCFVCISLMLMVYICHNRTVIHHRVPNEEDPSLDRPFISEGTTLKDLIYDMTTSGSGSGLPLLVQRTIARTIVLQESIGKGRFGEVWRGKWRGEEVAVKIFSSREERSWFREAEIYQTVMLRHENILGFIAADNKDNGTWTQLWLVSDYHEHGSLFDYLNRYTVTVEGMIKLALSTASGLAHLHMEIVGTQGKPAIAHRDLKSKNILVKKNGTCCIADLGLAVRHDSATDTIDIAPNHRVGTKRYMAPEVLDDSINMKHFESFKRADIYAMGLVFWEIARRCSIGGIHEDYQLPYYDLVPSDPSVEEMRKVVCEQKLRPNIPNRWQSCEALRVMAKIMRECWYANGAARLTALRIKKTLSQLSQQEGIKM
# IRAK3, sequence (Q9Y616 whole entry): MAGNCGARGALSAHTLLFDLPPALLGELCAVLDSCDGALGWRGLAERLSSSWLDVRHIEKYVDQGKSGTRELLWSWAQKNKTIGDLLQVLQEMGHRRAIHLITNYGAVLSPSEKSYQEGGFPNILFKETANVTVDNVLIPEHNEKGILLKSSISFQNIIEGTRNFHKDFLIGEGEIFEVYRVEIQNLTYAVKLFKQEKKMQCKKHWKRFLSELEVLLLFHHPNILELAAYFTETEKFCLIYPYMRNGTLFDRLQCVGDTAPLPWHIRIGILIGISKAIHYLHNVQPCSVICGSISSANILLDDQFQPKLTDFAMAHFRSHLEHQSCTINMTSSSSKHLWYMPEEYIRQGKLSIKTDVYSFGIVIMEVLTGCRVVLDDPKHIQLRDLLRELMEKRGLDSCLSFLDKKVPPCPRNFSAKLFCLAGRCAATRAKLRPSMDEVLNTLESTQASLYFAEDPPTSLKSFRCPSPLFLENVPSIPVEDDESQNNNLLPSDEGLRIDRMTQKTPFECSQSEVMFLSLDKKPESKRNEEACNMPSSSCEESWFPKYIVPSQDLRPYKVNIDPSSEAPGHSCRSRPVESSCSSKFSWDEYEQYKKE
# YANK2, sequence (Q9NY57 whole entry): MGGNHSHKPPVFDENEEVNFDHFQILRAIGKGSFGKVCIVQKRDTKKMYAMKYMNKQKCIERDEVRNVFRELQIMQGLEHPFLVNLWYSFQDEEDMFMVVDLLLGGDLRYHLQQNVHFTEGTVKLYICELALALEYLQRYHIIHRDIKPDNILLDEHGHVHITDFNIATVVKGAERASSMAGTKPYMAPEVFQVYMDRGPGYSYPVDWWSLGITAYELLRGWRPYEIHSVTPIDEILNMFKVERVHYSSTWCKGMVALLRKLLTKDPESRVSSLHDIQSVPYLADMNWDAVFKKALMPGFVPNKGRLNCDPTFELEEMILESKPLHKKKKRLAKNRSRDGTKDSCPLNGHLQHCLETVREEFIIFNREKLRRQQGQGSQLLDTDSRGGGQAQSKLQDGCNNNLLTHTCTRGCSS
Structure (SMILES),remaining binding at 1 µM [1],remaining binding at 1 µM [2],remaining binding at 1 µM (ACVRL1),remaining binding at 1 µM (ADCK3),remaining binding at 1 µM (AKT1),remaining binding at 1 µM (ARK5),remaining binding at 1 µM (BMPR1B),remaining binding at 1 µM (CAMKK1),remaining binding at 1 µM (CDK9),remaining binding at 1 µM (CHEK1),remaining binding at 1 µM (CSNK1A1L),remaining binding at 1 µM (EGFR(E746-A750del)),remaining binding at 1 µM (EPHA3),remaining binding at 1 µM (EPHA6),remaining binding at 1 µM (ERBB2),remaining binding at 1 µM (FGFR3),remaining binding at 1 µM (FGR),remaining binding at 1 µM (FRK),remaining binding at 1 µM (HCK),remaining binding at 1 µM (IKK-epsilon),also measured
"CCNc1cc(Nc2ccc(C(=O)N3CCC(N4CCOCC4)CC3)cc2OC)nc2[nH]cc(C#N)c12 [Example 18, 4-(ethylamino)-6-((2-methoxy-4-(4-morpholinopiperidine-1-carbonyl)phenyl)amino)-1H-pyrrolo[2,3-b]pyridine-3-carbonitrile]",95%,100%,80%,86%,100%,94%,85%,70%,100%,100%,3.1%,83%,93%,98%,99%,93%,100%,94%,85%,96%,remaining binding at 1 µM (IRAK3): 84%; remaining binding at 1 µM (KIT(V559D)): 33%; remaining binding at 1 µM (LCK): 96%; remaining binding at 1 µM (MEK2): 26%; remaining binding at 1 µM (MEK5): 77%; remaining binding at 1 µM (OSR1): 41%; remaining binding at 1 µM (PAK4): 88%; remaining binding at 1 µM (PCTK3): 86%; remaining binding at 1 µM (PIP5K2B): 87%; remaining binding at 1 µM (PKN1): 85%; remaining binding at 1 µM (PLK3): 79%; remaining binding at 1 µM (PRKR): 95%; remaining binding at 1 µM (ROS1): 83%; remaining binding at 1 µM [3]: 71%; remaining binding at 1 µM (SGK3): 79%; remaining binding at 1 µM (SYK): 66%; remaining binding at 1 µM (TGFBR1): 100%; remaining binding at 1 µM (ULK3): 95%; remaining binding at 1 µM (YANK2): 100%
"CCNc1cc(Nc2ccc(C(=O)N3CCC(N4CCOCC4)CC3)cc2OC)nc2[nH]cc(C(F)(F)F)c12 [Example 57, (4-((4-(ethylamino)-3-(trifluoromethyl)-1H-pyrrolo[2,3-b]pyridin-6-yl)amino)-3-methoxyphenyl) (4-morpholinopiperidin-1-yl)methanone]",86%,100%,89%,89%,97%,94%,100%,59%,85%,91%,71%,98%,100%,87%,73%,94%,78%,92%,88%,96%,remaining binding at 1 µM (IRAK3): 79%; remaining binding at 1 µM (KIT(V559D)): 77%; remaining binding at 1 µM (LCK): 90%; remaining binding at 1 µM (MEK2): 100%; remaining binding at 1 µM (MEK5): 99%; remaining binding at 1 µM (OSR1): 82%; remaining binding at 1 µM (PAK4): 93%; remaining binding at 1 µM (PCTK3): 86%; remaining binding at 1 µM (PIP5K2B): 100%; remaining binding at 1 µM (PKN1): 71%; remaining binding at 1 µM (PLK3): 98%; remaining binding at 1 µM (PRKR): 93%; remaining binding at 1 µM (ROS1): 69%; remaining binding at 1 µM [3]: 80%; remaining binding at 1 µM (SGK3): 100%; remaining binding at 1 µM (SYK): 68%; remaining binding at 1 µM (TGFBR1): 69%; remaining binding at 1 µM (ULK3): 83%; remaining binding at 1 µM (YANK2): 94%
